{
  "source": "patent US12569437B2",
  "about": "“Disease-site-specific liposomal formulation” (Osaka University, priority 2017, dated 2026)",
  "system": "rat monocrotaline (MCT)-induced severe heart failure (pulmonary hypertension) model",
  "assay": "Survival rate in rat monocrotaline-induced pulmonary hypertension model",
  "assay_type": "in vivo",
  "conditions": "42 days after MCT; oral 50 mg/kg × twice/day from day 7",
  "source_text": "The produced Formulation 21 (ONO-1301Lipo formulation) as a test substance was intermittently administered intravenously once weekly to a rat monocrotaline (MCT)-induced severe heart failure (pulmonary hypertension) model from day 7 of the MCT administration, and the survival rate was compared with a group in which compound (A) (ONO-1301) was repeatedly orally administered; a group in which compound (A) was intermittently administered intravenously once weekly; and, as a positive control, a group in which an ET-1 antagonist (bosentan) was orally administered. In the control group, physiological saline (vehicle) was administered once weekly by intravenous administration.\nFor animals, Slc: Wistar male rats, 5 weeks old at the start of the test, and 66.4 to 90.8 g at arrival (Japan SLC, Inc.) were used. Monocrotaline (hereinafter referred to as “MCT”), lot No.: SLBG1999V (Sigma-Aldrich Corporation), was administered once subcutaneously at the back of the rats at a dose of 60 mg/kg. Six days after the MCT administration, the animals were divided into groups according to the weight stratification assignment method (Table 19).",
  "data": [
    {"smiles": "COc1ccccc1Oc1c(NS(=O)(=O)c2ccc(C(C)(C)C)cc2)nc(-c2ncccn2)nc1OCCO", "note": "[Bosentan]", "values": [
      {"measurement": "Survival rate (%)", "result": 30, "unit": "%"}
    ]}
  ]
}
